Data published in the NIST ThermoML archive (doi:10.1021/acs.jced.8b00635).
Numbers after ± are expanded uncertainties.

Experiment: activity coefficient (dimensionless); of the first substance listed, at infinite dilution; xn = mol fraction of the nth substance listed
Conditions: 101.33 kPa, Liquid, Chromatography, x1 = 0

Row | Compound | activity coefficient (323.15 K) | activity coefficient (333.15 K) | activity coefficient (343.15 K) | activity coefficient (353.15 K) | activity coefficient (363.15 K) | activity coefficient (373.15 K)
1 | Cc1cccc(C)c1 [1,3-dimethylbenzene] + CCCCC(CC)CN(CC(CC)CCCC)C(=O)C(C)C | 11.8 ± 1.2 | 9.28 ± 0.98 | 7.2 ± 0.76 | 5.33 ± 0.56 | 4.13 ± 0.43 | 3.14 ± 0.33
2 | Cc1ccc(C)cc1 [1,4-dimethylbenzene] + CCCCC(CC)CN(CC(CC)CCCC)C(=O)C(C)C | 11.6 ± 1.2 | 9.01 ± 0.95 | 6.9 ± 0.73 | 5.2 ± 0.55 | 3.75 ± 0.4 | 2.89 ± 0.3
3 | C=CCCCCCCCC [1-decene] + CCCCC(CC)CN(CC(CC)CCCC)C(=O)C(C)C | 24.3 ± 2.6 | 19.4 ± 2 | 16.8 ± 1.8 | 14 ± 1.5 | 11.1 ± 1.2 | 9.87 ± 1
4 | C=CCCCCC [1-heptene] + CCCCC(CC)CN(CC(CC)CCCC)C(=O)C(C)C | 4.02 ± 0.42 | 2.89 ± 0.3 | 2.31 ± 0.24 | 1.8 ± 0.19 | 1.25 ± 0.13 | 0.974 ± 0.099
5 | CC(C)CC(C)(C)C [2,2,4-trimethylpentane] + CCCCC(CC)CN(CC(CC)CCCC)C(=O)C(C)C | 4.26 ± 0.45 | 3.33 ± 0.35 | 2.6 ± 0.27 | 2.09 ± 0.22 | 1.74 ± 0.18 | 1.29 ± 0.13
6 | CCCCCC(C)=O [2-heptanone] + CCCCC(CC)CN(CC(CC)CCCC)C(=O)C(C)C | 13.8 ± 1.4 | 10.6 ± 1.1 | 8.16 ± 0.86 | 6.2 ± 0.65 | 5 ± 0.53 | 4.04 ± 0.42
7 | CCCC(C)C [2-methylpentane] + CCCCC(CC)CN(CC(CC)CCCC)C(=O)C(C)C | 1.11 ± 0.11 | 0.938 ± 0.096 | 0.768 ± 0.079 | 0.639 ± 0.067 | 0.525 ± 0.057 | 0.428 ± 0.049
8 | CCCC(=O)CC [3-hexanone] + CCCCC(CC)CN(CC(CC)CCCC)C(=O)C(C)C | 8.64 ± 0.91 | 6.42 ± 0.68 | 4.88 ± 0.51 | 3.74 ± 0.39 | 2.86 ± 0.3 | 2.15 ± 0.23
9 | CC(C)=O [acetone] + CCCCC(CC)CN(CC(CC)CCCC)C(=O)C(C)C | 0.901 ± 0.092 | 0.745 ± 0.077 | 0.596 ± 0.064 | 0.465 ± 0.052 | 0.375 ± 0.045 | 0.294 ± 0.039
10 | CC#N [acetonitrile] + CCCCC(CC)CN(CC(CC)CCCC)C(=O)C(C)C | 1.47 ± 0.15 | 1.21 ± 0.12 | 1.03 ± 0.1 | 0.861 ± 0.088 | 0.718 ± 0.075 | 0.568 ± 0.061
11 | c1ccccc1 [benzene] + CCCCC(CC)CN(CC(CC)CCCC)C(=O)C(C)C | 2.56 ± 0.27 | 2 ± 0.21 | 1.65 ± 0.17 | 1.37 ± 0.14 | 1.15 ± 0.12 | 0.954 ± 0.097
12 | CCCCc1ccccc1 [butylbenzene] + CCCCC(CC)CN(CC(CC)CCCC)C(=O)C(C)C | 24.4 ± 2.6 | 20.7 ± 2.2 | 17.5 ± 1.8 | 15 ± 1.6 | 12.5 ± 1.3 | 10.6 ± 1.1
13 | C1CCCCC1 [cyclohexane] + CCCCC(CC)CN(CC(CC)CCCC)C(=O)C(C)C | 2.77 ± 0.29 | 2.15 ± 0.23 | 1.74 ± 0.18 | 1.41 ± 0.15 | 1.18 ± 0.12 | 0.966 ± 0.098
14 | CCCCCCCCCC [decane] + CCCCC(CC)CN(CC(CC)CCCC)C(=O)C(C)C | 26.4 ± 2.8 | 22.7 ± 2.4 | 18.3 ± 1.9 | 15.2 ± 1.6 | 12.2 ± 1.3 | 9.89 ± 1
15 | ClCCl [dichloromethane] + CCCCC(CC)CN(CC(CC)CCCC)C(=O)C(C)C | 0.608 ± 0.065 | 0.506 ± 0.056 | 0.41 ± 0.048 | 0.339 ± 0.042 | 0.273 ± 0.037 | 0.225 ± 0.034
16 | CCOC(C)=O [ethyl acetate] + CCCCC(CC)CN(CC(CC)CCCC)C(=O)C(C)C | 1.43 ± 0.15 | 1.22 ± 0.12 | 0.985 ± 0.1 | 0.87 ± 0.089 | 0.7 ± 0.073 | 0.566 ± 0.061
17 | CCc1ccccc1 [ethylbenzene] + CCCCC(CC)CN(CC(CC)CCCC)C(=O)C(C)C | 11.3 ± 1.2 | 8.75 ± 0.92 | 6.78 ± 0.71 | 4.96 ± 0.52 | 3.9 ± 0.41 | 2.88 ± 0.3
18 | CCCCCCC [heptane] + CCCCC(CC)CN(CC(CC)CCCC)C(=O)C(C)C | 4.37 ± 0.46 | 3.49 ± 0.37 | 2.78 ± 0.29 | 2.32 ± 0.24 | 2.02 ± 0.21 | 1.71 ± 0.18
19 | C=CCCCC [hex-1-ene] + CCCCC(CC)CN(CC(CC)CCCC)C(=O)C(C)C | 1.77 ± 0.18 | 1.37 ± 0.14 | 1.17 ± 0.12 | 0.957 ± 0.097 | 0.789 ± 0.081 | 0.678 ± 0.071
20 | CCCCCC [hexane] + CCCCC(CC)CN(CC(CC)CCCC)C(=O)C(C)C | 1.91 ± 0.2 | 1.53 ± 0.16 | 1.26 ± 0.13 | 1.02 ± 0.1 | 0.845 ± 0.087 | 0.717 ± 0.075
21 | C=O [methanal] + CCCCC(CC)CN(CC(CC)CCCC)C(=O)C(C)C | 0.056 | 0.052 | 0.048 | 0.044 | 0.041 | 0.037
22 | CCCCCCCCC [nonane] + CCCCC(CC)CN(CC(CC)CCCC)C(=O)C(C)C | 18.5 ± 1.9 | 16 ± 1.7 | 13.7 ± 1.4 | 11.8 ± 1.2 | 9.8 ± 1 | 8.67 ± 0.91
23 | C=CCCCCCC [oct-1-ene] + CCCCC(CC)CN(CC(CC)CCCC)C(=O)C(C)C | 7.52 ± 0.79 | 6.09 ± 0.64 | 4.86 ± 0.51 | 3.76 ± 0.4 | 2.94 ± 0.31 | 2.21 ± 0.23
24 | CCCCCCCC [octane] + CCCCC(CC)CN(CC(CC)CCCC)C(=O)C(C)C | 11.9 ± 1.3 | 8.35 ± 0.88 | 6.04 ± 0.64 | 4.54 ± 0.48 | 3.36 ± 0.35 | 2.63 ± 0.28
25 | CCCCC [pentane] + CCCCC(CC)CN(CC(CC)CCCC)C(=O)C(C)C | 0.795 ± 0.082 | 0.676 ± 0.071 | 0.544 ± 0.059 | 0.457 ± 0.051 | 0.382 ± 0.045 | 0.324 ± 0.041
26 | CCCc1ccccc1 [propylbenzene] + CCCCC(CC)CN(CC(CC)CCCC)C(=O)C(C)C | 17.8 ± 1.9 | 14.7 ± 1.6 | 11.5 ± 1.2 | 9.18 ± 0.97 | 7.33 ± 0.77 | 5.72 ± 0.6
27 | ClC(Cl)(Cl)Cl [tetrachloromethane] + CCCCC(CC)CN(CC(CC)CCCC)C(=O)C(C)C | 1.94 ± 0.2 | 1.6 ± 0.17 | 1.22 ± 0.13 | 0.935 ± 0.095 | 0.727 ± 0.076 | 0.581 ± 0.062
28 | Cc1ccccc1 [toluene] + CCCCC(CC)CN(CC(CC)CCCC)C(=O)C(C)C | 5.11 ± 0.54 | 4.25 ± 0.45 | 3.25 ± 0.34 | 2.5 ± 0.26 | 1.88 ± 0.2 | 1.46 ± 0.15
29 | ClC(Cl)Cl [trichloromethane] + CCCCC(CC)CN(CC(CC)CCCC)C(=O)C(C)C | 1.15 ± 0.12 | 0.966 ± 0.098 | 0.746 ± 0.077 | 0.586 ± 0.063 | 0.463 ± 0.052 | 0.372 ± 0.044
30 | CCCCCCCCCCC [undecane] + CCCCC(CC)CN(CC(CC)CCCC)C(=O)C(C)C | 39.2 ± 4.1 | 35.9 ± 3.8 | 31.5 ± 3.3 | 27.5 ± 2.9 | 25.5 ± 2.7 | 22.7 ± 2.4
